In ChEMBL document CHEMBL5380777, “Efficacy, Mechanism, and Structure-Activity Relationship of 6-Methoxy Benzofuran Derivatives as a Useful Tool for Senile Osteoporosis” (J Med Chem, 2023):
Active and inactive are the calls of the source. The calls are words filed in the database; no cut-off is given here.

Experiments:
Mus musculus [1] = assay: Anti osteoporosis in 16 months old C57 mouse assessed as chondroblast level in femur administered at 30 mg/kg/day, IG continuously for 4 months by scRNA-seq analysis (reference value: 2.49%); format: functional; conditions: 2920 h
[2] = Toxicity in 2.5 months old SAMP-6 rapid aging mouse model assessed as change in triglyceride level administered at 30 mg/kg/day, IG continuously for 3 months; format: organism-based; conditions: in vivo, po, 2190 h
Osteoblast [3] = assay: Regulation of osteogenesis in 16 months old C57 mouse osteoblast endoplasmic reticulum assessed as increase in Dnaja1 gene by scRNA-seq analysis; format: functional, cell-based
[4] = Toxicity in 16 months old C57 mouse assessed as change in albumin level administered at 30 mg/kg/day, IG continuously for 4 months; format: organism-based; conditions: in vivo, po, 2920 h
Osteoblast [5] = assay: Regulation of osteogenesis in 16 months old C57 mouse osteoblast endoplasmic reticulum assessed as increase in Hspa1b gene by scRNA-seq analysis; format: functional, cell-based
Mus musculus [6] = assay: Anti osteoporosis in 16 months old C57 mouse assessed as fold increase in osteoclast level in femur administered at 30 mg/kg/day, IG continuously for 4 months by scRNA-seq analysis relative to control; format: functional; conditions: 2920 h
[7] = Toxicity in 2.5 months old SAMP-6 rapid aging mouse model assessed as change in serum ALT level administered at 30 mg/kg/day, IG continuously for 3 months; format: organism-based; conditions: in vivo, po, 2190 h
[8] = Toxicity in 2.5 months old SAMP-6 rapid aging mouse model assessed as change in creatinine level administered at 30 mg/kg/day, IG continuously for 3 months; format: organism-based; conditions: in vivo, po, 2190 h
[9] = Toxicity in 2.5 months old SAMP-6 rapid aging mouse model assessed as change in serum AST level administered at 30 mg/kg/day, IG continuously for 3 months in presence of ALN; format: organism-based; conditions: in vivo, po, 2190 h
[10] = Toxicity in 16 months old C57 mouse assessed as change in triglyceride level administered at 30 mg/kg/day, IG continuously for 4 months; format: organism-based; conditions: in vivo, po, 2920 h

In the case of `COc1ccc2cc(C(=O)NCCN(C)C)oc2c1.CS(=O)(=O)O`, the Activity (Mus musculus [1]) is reported as 3.77%, the Activity [2] is reported as “Non-Toxic” and the Activity (Osteoblast [3]) is reported as “Active”. For the same compound, the Activity [4] was “Non-Toxic”, the Activity (Osteoblast [5]) was “Active” and the “fold change (FC)” value (Mus musculus [6]) was 3. For the same compound, the Activity [7] was “Non-Toxic”, the Activity [8] was “Non-Toxic” and the Activity [9] was “Non-Toxic”. The Activity [10] was “Non-Toxic”.
